From patent US20240350430A1, “GROWTH INHIBITOR OF METASTATIC HUMAN PROSTATE CANCER CELLS” (Watanabe Oyster Laboratory Co., Ltd., priority 2021, published 2024)

Columns and labels:
PC-3 cells = assay: Cell growth of PC-3 cells (cell counting); assay type: cell-based, human
Procedure: The PC-3 and DU-145 cells (the cell number of 1×10^5/in 1 ml of a culture fluid per hole using a 24-hole plate) were cultured in a DMEM culture fluid (containing 10% of FBS, 1% of P/S, and 1% of fungizone) containing the DHMBA (1 and 10 μM) under 5% of CO2, at 37° C., for one, two, three, four, and six days. […] After the culture, 0.1 ml of 0.05% trypsin-EDTA solution obtained by dissolving the cells adhering to the bottom surface of the culture dish in PBS (Thermo Fisher Scientific, Waltham, MA, USA) not containing Ca^2+/Mg^2+ was added, incubation was performed at 37° C. for two minutes to release the adhering cells, and 0.9 ml of the DMEM culture fluid containing 10% of FBS and 1% of P/S was added to stop the reaction. The cell number in the cell suspension was counted by the method described in the item of “Measurement of Cell Number.”
After the culture of the cells, 0.1 ml of 0.05% trypsin-EDTA solution obtained by dissolving the cells adhering to the bottom surface of the culture dish in PBS (Thermo Fisher Scientific, Waltham, MA, USA) not containing Ca^2+/Mg^2+ was added, incubation was performed at 37° C. for two minutes to release the adhering cells, and 0.9 ml of the DMEM culture fluid containing 10% of FBS and 1% of P/S was added to stop the reaction. The visible cells were counted by the Olympus MTV-3 microscope using a hemocytometer (Sigma-Aldrich).
FIG. 1(C) is a diagram in which the PC-3 cells (1×10^5 cells/per well of a 24-well plate) were cultured under 5% of CO2, at 37° C., for one to six days in a DMEM culture fluid (containing 10% of FBS, 1% of P/S, and 1% of fungizone) containing the DHMBA (10 μM).
In FIGS. 1(D) and 1(E), the PC-3 cells (1×10^5 cells/per well of a 24-well plate) were cultured under 5% of CO2, at 37° C., for three (FIG. 1D) and six (FIG. 1E) days in a DMEM culture fluid (containing 10% of FBS, 1% of P/S, and 1% of fungizone) containing the DHMBA (0.01, 0.1, 1, 10, 100, and 1000 μM). After the culture, the cells adhered to the bottom surface of the dish were removed and counted. […] 1-way ANOVA, Tukey-Kramer post-test.
FIGS. 3(A) and 3(B) are diagrams in which the PC-3 cells (1×10^5 cells/ml/per well of a 24-well plate) were cultured under 5% of CO2, at 37° C., for three days in a DMEM culture fluid (containing 10% of FBS, 1% of P/S, and 1% of fungizone) containing the DHMBA (10 μM) containing cell cycle inhibitors, roscovitine (10 and 100 nM), butyrate (10 and 100 μM), and sulforaphane (1 and 10 nM).
After the culture, the cells adhered to the dish were removed and counted. […] 1-way ANOVA, Tukey-Kramer post-test.
In the drawing, the PC-3 cells (1×10^5/in 1 ml of a culture fluid per hole using a 24-hole plate) were cultured under 5% of CO2, at 37° C., for three days in a DMEM culture fluid (containing 10% of FBS, 1% of P/S, and 1% of fungizone) in the presence of the DHMBA (10 μM) and an aryl hydrocarbon receptor inhibitor CH223191 (1, 10, or 25 μM) to examine the action on cell growth.

DU-145 cells = assay: Cell invasion, Transwell chambers with Matrigel, DU-145 cells; assay type: cell-based, human; details: DHMBA 1, 10, or 100 μM, 24 hours
Procedure: The cell invasion activity of the prostate cancer PC-3 and DU-145 cells was measured using Transwell chambers (the catalogue number CLS3464-48EA of Corning, Life Sciences, USA). A chamber was placed in each well of the 24-hole plate. 50 μl of Matrigel (Corning Life Sciences, Cat. No. 356230, USA) was added to the upper surface of the chambers. After drying the gel, 500 μl of a suspension of the PC-3 or DU-145 cells (the cell number of 2.5×10^4/ml, the DMEM not containing FBS) was added to the upper surface of the gel. This cell suspension contained the DHMBA (0, 1, 10, or 100 μM). After the addition of the cell suspension to the chambers, it was incubated for one hour to cause the cells to adhere. 0.75 ml of the culture fluid not containing the FBS and a culture fluid containing 10% of FBS were added to the lower surface of the chambers. The cells on the plate were cultured under 5% of CO2, 95% of air, at 37° C., for 24 hours. […] After the drying, the number of the stained cells was counted by the microscope (Olympus MTV-3, Olympus Corporation, Tokyo, Japan). […]
The cell invasion activities of the prostate cancer PC-3 and DU-145 cells were measured using the Transwell chambers. […] After the drying, the number of the stained cells was counted by the microscope (Olympus MTV-3, Olympus Corporation, Tokyo, Japan). […]

COc1c(O)cc(CO)cc1O [DHMBA, 3,5-dihydroxy-4-methoxybenzyl alcohol]
effect on cell growth at low concentration (PC-3 cells; DHMBA 0.01 μM): significant effect
cell growth inhibitory effect of DHMBA in the presence of CH223191 (PC-3 cells; DHMBA 10 μM with CH223191 1, 10, or 25 μM, three days): found not to be expressed
cell growth inhibitory effect of DHMBA in the presence of cell cycle inhibitors (PC-3 cells; DHMBA 10 μM with roscovitine, butyrate or sulforaphane, three days): not observed
cell growth inhibitory effect of DHMBA in the presence of signaling inhibitors (PC-3 cells; DHMBA 10 μM with wortmannin, PD98059 or staurosporine, three days): no significant cell growth inhibitory effect
cell growth (PC-3 cells; DHMBA 10 μM, one to six days): inhibited
invasion (DU-145 cells): significantly inhibited
